Assay results reported in PubChem BioAssay AID274 (DTP/NCI, 2004).
Several values for one entry are separate records, joined by “and”; a condition that tells them apart may be missing. Equal entries are not always repeated. Toxic doses and inconclusive results are not listed. Numbered stars: 1 amine (or outer) side, 2 acyl side, 3 side chain; on linkers, the order of the positions; unused ones are H or OH. Bridge positions count the residues as written; N and C are the ends. Square brackets hold non-standard residues; d marks the D form. Peptide text beside a SMILES is read from it. I, II: the chains in the order shown. Actinocin(9to1) = Cc1c2oc3c(C)ccc(C(=O)[*:1])c3nc-2c(C(=O)[*:2])c(N)c1=O; aThr = C[C@H](O)[C@H](N)C(=O)O; NMeV = CN[C@H](C(=O)O)C(C)C; Sar = CNCC(=O)O

Test system: BDF1 mice, Lewis lung carcinoma iv, survival T/C
Assay: NCI In Vivo Anticancer Drug Screen. Data for tumor model Lewis Lung Carcinoma (intravenous) in B6D2F1 (BDF1) mice
Details: higher = longer survival
Procedure: The antitumor activity of compounds was measured in mice bearing transplantable tumors. Survival or tumor size were measured and the results are expressed as the measurement made in the treated group (T) divided by the measurement made in the vehicle treated control group (C). The tumor model used in this assay is Lewis Lung Carcinoma (intravenous) in B6D2F1 (BDF1) mice

[1] = endpoint: median survival time, dose: 50.0 mg/kg/injection, schedule: Q01DX009 (ip), vehicle: saline with Tween-80
[2] = endpoint: median survival time, dose: 100.0 mg/kg/injection, schedule: Q01DX009 (ip), vehicle: saline with Tween-80
[3] = endpoint: median survival time, dose: 200.0 mg/kg/injection, schedule: Q01DX009 (ip), vehicle: saline with Tween-80
[4] = endpoint: median survival time, dose: 6.25 mg/kg/injection, schedule: Q01DX009 (ip), vehicle: Klucel (hydroxypropylcellulose) (HPC)
[5] = endpoint: median survival time, dose: 12.5 mg/kg/injection, schedule: Q01DX009 (ip), vehicle: Klucel (hydroxypropylcellulose) (HPC)
[6] = endpoint: median survival time, dose: 25.0 mg/kg/injection, schedule: Q01DX009 (ip), vehicle: Klucel (hydroxypropylcellulose) (HPC)
[7] = endpoint: median survival time, dose: 50.0 mg/kg/injection, schedule: Q01DX009 (ip), vehicle: Klucel (hydroxypropylcellulose) (HPC)
[8] = endpoint: median survival time, dose: 3.12 mg/kg/injection, schedule: Q01DX009 (ip), vehicle: saline with Tween-80
[9] = endpoint: median survival time, dose: 6.25 mg/kg/injection, schedule: Q01DX009 (ip), vehicle: saline with Tween-80
[10] = endpoint: median survival time, dose: 12.5 mg/kg/injection, schedule: Q01DX009 (ip), vehicle: saline with Tween-80
[11] = endpoint: median survival time, dose: 25.0 mg/kg/injection, schedule: Q01DX009 (ip), vehicle: saline with Tween-80

## CN(C)c1nc(N(C)C)nc(N(C)C)n1
[1]
  T/C: 99 % of control
endpoint: median survival time, dose: 59.0 mg/kg/injection, schedule: Q04DX003 (ip), vehicle: saline
  T/C: 102 % of control
endpoint: median survival time, dose: 88.0 mg/kg/injection, schedule: Q04DX003 (ip), vehicle: saline
  T/C: 97 % of control
[2]
  T/C: 154 % of control
endpoint: median survival time, dose: 133.0 mg/kg/injection, schedule: Q04DX003 (ip), vehicle: Klucel (hydroxypropylcellulose) (HPC)
  T/C: 90 % of control
endpoint: median survival time, dose: 133.0 mg/kg/injection, schedule: Q04DX003 (ip), vehicle: saline
  T/C: 101 % of control and 109 % of control
[3]
  T/C: 92 % of control
endpoint: median survival time, dose: 200.0 mg/kg/injection, schedule: Q04DX003 (ip), vehicle: Klucel (hydroxypropylcellulose) (HPC)
  T/C: 114 % of control
endpoint: median survival time, dose: 200.0 mg/kg/injection, schedule: Q04DX003 (ip), vehicle: saline
  T/C: 96 % of control and 105 % of control
endpoint: median survival time, dose: 300.0 mg/kg/injection, schedule: Q04DX003 (ip), vehicle: saline
  T/C: 95 % of control and 105 % of control
endpoint: median survival time, dose: 450.0 mg/kg/injection, schedule: Q04DX003 (ip), vehicle: saline
  T/C: 104 % of control
endpoint: median survival time, dose: 675.0 mg/kg/injection, schedule: Q04DX003 (ip), vehicle: saline
  T/C: 105 % of control

## O=C(Nc1ccc(N=C=S)cc1Cl)c1cc(Cl)cc(Cl)c1O
[4]
  T/C: 97 % of control
[5]
  T/C: 97 % of control
[6]
  T/C: 105 % of control
[7]
  T/C: 116 % of control

## O=c1cc(CCl)[nH]nc1CCl
[8]
  T/C: 98 % of control
[9]
  T/C: 96 % of control
[10]
  T/C: 96 % of control

## CSCCC(N)C(=O)O (stereo not given)
endpoint: median survival time, dose: 18.75 mg/kg/injection, schedule: Q01DX009 (ip), vehicle: saline with Tween-80
  T/C: 101 % of control
endpoint: median survival time, dose: 37.5 mg/kg/injection, schedule: Q01DX009 (ip), vehicle: saline with Tween-80
  T/C: 93 % of control
endpoint: median survival time, dose: 40.0 mg/kg/injection, schedule: Q01DX009 (ip), vehicle: saline with Tween-80
  T/C: 100 % of control
endpoint: median survival time, dose: 75.0 mg/kg/injection, schedule: Q01DX009 (ip), vehicle: saline with Tween-80
  T/C: 101 % of control
endpoint: median survival time, dose: 80.0 mg/kg/injection, schedule: Q01DX009 (ip), vehicle: saline with Tween-80
  T/C: 97 % of control
endpoint: median survival time, dose: 150.0 mg/kg/injection, schedule: Q01DX009 (ip), vehicle: saline with Tween-80
  T/C: 91 % of control
endpoint: median survival time, dose: 160.0 mg/kg/injection, schedule: Q01DX009 (ip), vehicle: saline with Tween-80
  T/C: 95 % of control
endpoint: median survival time, dose: 320.0 mg/kg/injection, schedule: Q01DX009 (ip), vehicle: saline with Tween-80
  T/C: 100 % of control

## N#Cc1nc(C#N)c(Sc2ccccc2)c(Sc2ccccc2)c1Sc1ccccc1
[8]
  T/C: 95 % of control
[9]
  T/C: 94 % of control
[10]
  T/C: 97 % of control
[11]
  T/C: 95 % of control
[1]
  T/C: 98 % of control
[2]
  T/C: 98 % of control

## COC1/C=C\C=C(/C)C(=O)NC2=CC(=O)C=C(C2=O)C(OC)C(C)CC(OC)C(OC)C(C)/C=C(/C)C1OC(N)=O (stereo not given)
endpoint: median survival time, dose: 0.18 mg/kg/injection, schedule: Q01DX009 (ip), vehicle: Klucel (hydroxypropylcellulose) (HPC)
  T/C: 112 % of control
endpoint: median survival time, dose: 0.37 mg/kg/injection, schedule: Q01DX009 (ip), vehicle: Klucel (hydroxypropylcellulose) (HPC)
  T/C: 115 % of control
endpoint: median survival time, dose: 0.75 mg/kg/injection, schedule: Q01DX009 (ip), vehicle: Klucel (hydroxypropylcellulose) (HPC)
  T/C: 112 % of control
endpoint: median survival time, dose: 1.5 mg/kg/injection, schedule: Q01DX009 (ip), vehicle: Klucel (hydroxypropylcellulose) (HPC)
  T/C: 105 % of control

## CC(=O)NC(CCc1ccc(Cl)c(Cl)c1)c1cccc(O)c(=O)c1 (stereo not given)
[4]
  T/C: 97 % of control
[5]
  T/C: 99 % of control
[6]
  T/C: 95 % of control
[7]
  T/C: 96 % of control

## Nc1cc2[nH]cnc2c(=O)[nH]1
endpoint: mean survival time, dose: 95.0 mg/kg/injection, schedule: Q01DX009 (ip), vehicle: Klucel (hydroxypropylcellulose) (HPC)
  T/C: 118 % of control
endpoint: mean survival time, dose: 140.0 mg/kg/injection, schedule: Q01DX009 (ip), vehicle: Klucel (hydroxypropylcellulose) (HPC)
  T/C: 90 % of control

## COc1cc(C(=O)c2cocc2C(=O)c2ccc3c(c2)OCO3)cc(OC)c1OC
[7]
  T/C: 88 % of control
endpoint: median survival time, dose: 400.0 mg/kg/injection, schedule: Q01DX009 (ip), vehicle: Klucel (hydroxypropylcellulose) (HPC)
  T/C: 94 % of control

## COc1cccc2c1C(=O)c1c(O)c3c(c(O)c1C2=O)C[C@@](O)(/C(C)=N\NC(=O)CO)C[C@@H]3OC1CC(N)C(O)C(C)O1 (stereo not given in full)
endpoint: median survival time, dose: 0.37 mg/kg/injection, schedule: Q01DX009 (ip), vehicle: saline
  T/C: 105 % of control
endpoint: median survival time, dose: 0.75 mg/kg/injection, schedule: Q01DX009 (ip), vehicle: saline
  T/C: 106 % of control
endpoint: median survival time, dose: 1.5 mg/kg/injection, schedule: Q01DX009 (ip), vehicle: saline
  T/C: 101 % of control
endpoint: median survival time, dose: 3.0 mg/kg/injection, schedule: Q01DX009 (ip), vehicle: saline
  T/C: 115 % of control
endpoint: median survival time, dose: 6.0 mg/kg/injection, schedule: Q01DX009 (ip), vehicle: saline
  T/C: 103 % of control
endpoint: median survival time, dose: 12.0 mg/kg/injection, schedule: Q01DX009 (ip), vehicle: saline
  T/C: 105 % of control

## CC1=C(/C=C/C(C)=C/C=C/C(C)=C/C(=O)O)C(C)(C)CCC1
endpoint: median survival time, dose: 4.0 mg/kg/injection, schedule: Q01DX005 (ip), vehicle: saline with Tween-80
  T/C: 92 % of control
endpoint: median survival time, dose: 8.0 mg/kg/injection, schedule: Q01DX005 (ip), vehicle: saline with Tween-80
  T/C: 95 % of control
endpoint: median survival time, dose: 16.0 mg/kg/injection, schedule: Q01DX005 (ip), vehicle: saline with Tween-80
  T/C: 102 % of control
endpoint: median survival time, dose: 32.0 mg/kg/injection, schedule: Q01DX005 (ip), vehicle: saline with Tween-80
  T/C: 91 % of control
endpoint: median survival time, dose: 128.0 mg/kg/injection, schedule: Q01DX005 (ip), vehicle: saline with Tween-80
  T/C: 91 % of control

## Cc1c2oc3c(C)ccc(C(=O)N[C@@H]4C(=O)N[C@H](C(C)C)C(=O)N5CCC[C@H]5C(=O)N(C)CC(=O)N(C)[C@@H](C(C)C)C(=O)O[C@H]4C)c3nc-2c(C(=O)N[C@@H]2C(=O)N[C@H](C(C)C)C(=O)N3CCC[C@H]3C(=O)N(C)CC(=O)N(C)[C@@H](C(C)C)C(=O)O[C@H]2C)c(N)c1=O (I: [aThr][dV]P[Sar][NMeV] / II: [aThr][dV]P[Sar][NMeV]; ester I:1-I:C, II:1-II:C; linker I:N-II:N via Actinocin(9to1))
endpoint: median survival time, dose: 65.0 micrograms/kg/injection, schedule: Q04DX003 (ip), vehicle: saline + alcohol
  T/C: 91 % of control
endpoint: median survival time, dose: 108.0 micrograms/kg/injection, schedule: Q04DX003 (ip), vehicle: saline + alcohol
  T/C: 92 % of control and 94 % of control
endpoint: median survival time, dose: 180.0 micrograms/kg/injection, schedule: Q04DX003 (ip), vehicle: saline + alcohol
  T/C: 97 % of control and 104 % of control
endpoint: median survival time, dose: 259.0 micrograms/kg/injection, schedule: Q01DX001 (ip), vehicle: saline + alcohol
  T/C: 94 % of control
endpoint: median survival time, dose: 300.0 micrograms/kg/injection, schedule: Q04DX003 (ip), vehicle: saline + alcohol
  T/C: 95 % of control and 106 % of control
endpoint: median survival time, dose: 432.0 micrograms/kg/injection, schedule: Q01DX001 (ip), vehicle: saline + alcohol
  T/C: 98 % of control

## Nc1nc2n[nH]nc2c(=O)[nH]1
endpoint: median survival time, dose: 25.0 mg/kg/injection, schedule: Q01DX009 (ip), vehicle: suspension in saline
  T/C: 93 % of control
endpoint: median survival time, dose: 50.0 mg/kg/injection, schedule: Q01DX009 (ip), vehicle: suspension in saline
  T/C: 98 % of control

## CNC(=O)c1cccc2c(Nc3ccc(NS(C)(=O)=O)cc3OC)c3cccc(C)c3nc12
endpoint: median survival time, dose: 0.39 mg/kg/injection, schedule: Q01DX009 (ip), vehicle: water
  T/C: 100 % of control
endpoint: median survival time, dose: 1.56 mg/kg/injection, schedule: Q01DX009 (ip), vehicle: water
  T/C: 112 % of control
endpoint: median survival time, dose: 3.12 mg/kg/injection, schedule: Q01DX009 (ip), vehicle: water
  T/C: 89 % of control

## CC(Oc1ccccc1-c1ccccc1)C(=O)N(C)C (stereo not given)
[10]
  T/C: 118 % of control
[11]
  T/C: 95 % of control
[1]
  T/C: 113 % of control
[2]
  T/C: 93 % of control
[3]
  T/C: 113 % of control
endpoint: median survival time, dose: 400.0 mg/kg/injection, schedule: Q01DX009 (ip), vehicle: saline with Tween-80
  T/C: 114 % of control

## CCCCCc1cc(O)c2c(c1)OC(C)(C)[C@@H]1CCC(C)=C[C@@H]21
endpoint: median survival time, dose: 200.0 mg/kg/injection, schedule: Q01DX009 (ip), vehicle: other
  T/C: 89 % of control
endpoint: median survival time, dose: 800.0 mg/kg/injection, schedule: Q01DX009 (ip), vehicle: other
  T/C: 88 % of control

## O=C(Nc1cccc(Cl)c1)ON1C(=O)C2C(C1=O)C1(Cl)C(Cl)C(Cl)C2(Cl)C1(Cl)Cl (stereo not given)
[1]
  T/C: 98 % of control
[3]
  T/C: 87 % of control

## O=c1[nH]c(=O)n([C@H]2CCCO2)cc1F
[6]
  T/C: 106 % of control
[7]
  T/C: 104 % of control
endpoint: median survival time, dose: 100.0 mg/kg/injection, schedule: Q01DX009 (ip), vehicle: Klucel (hydroxypropylcellulose) (HPC)
  T/C: 100 % of control
